According to US20260256764A1, “COMPOSITIONS AND METHODS FOR ORAL DELIVERY OF SUSTAINED RELEASE CRYSTALLINE PRX-3140” (NANOPHARMACEUTICS, INC., priority 2023, published 2026):

How the values were obtained:
[1] = Forced degradation study (acid, base, 3% hydrogen peroxide), LC-UV-MS; type: physicochemical; conditions: 24 hours; for percent peak area at 250 nm, RRT 1.00 (purity of parent molecule) / percent peak area at 250 nm, RRT 1.05 (PRX-3140b): potassium salt
Protocol: Example 4—Crystalline PRX-3140 Potassium Salt Forced Degradation Study. Crystalline fine particle Form I of PRX-3140 potassium salt was subjected to a forced degradation study using acid, base, or hydrogen peroxide exposure for 24 hours. Samples were neutralized and analyzed using LC-UV-MS.
Sample Preparation: Crystalline fine particle Form I of PRX-3140 potassium salt, 50 mg, was weighed out into a 25 mL volumetric flask and taken to volume with water (2 mg/mL stock). One mL of stock was added to four, 4 mL vials. One mL of either 1N HCl, 1N NaOH, 3% H2O2, or DI Water (control) was added to the appropriate vial, mixed, and stored at room temperature for 24 hours. After storage, the samples of acid and base were neutralized by addition of 1 mL their counter solution. […] Samples were analyzed using LC-UV-MS.
Table 5 lists a comparison for the control, acid, base, and peroxide samples showing percent peak area versus relative retention time (RRT) at 250 nm. While some minor changes can be noted between the control with the acid and base samples, the overall purity (peak area) of the parent molecule is just slightly higher for the acid and base sample. Some of the minor impurities appear to be reacting with the acid or base, potentially reforming to the parent.

[2] = Photostability study (ICH Q1B), HPLC; type: physicochemical
Protocol: […]. Samples were exposed to ICH photostability guideline Q1B=1.2 million lux hours of cool, white fluorescent light & 200 watt hours/m2 of UVA light at […]. Samples were exposed for 2 days and tested using HPLC.
[…]. The light exposure was performed in a cabinet set at 25 degrees Celsius/60% RH.
[…]. Changes were evident for crystalline fine particle Form I of PRX-3140 potassium salt after exposure to UVA and white light. The sample changed color particularly on the upper exposed surface of the material and there were changes apparent in the HPLC data. […]. The single impurity profile met the specification (0.20) but significant changes were observed. There was an increase in the number of minor impurities, particularly in a region of the chromatogram between RRT 1.5 and 2.1. Total impurities increased from 0.20% in the control sample to 0.770 in the exposed sample. An impurity at RRT 1.83 which was not present before exposure to light was formed at 0.16% in the exposed sample. Other changes included a change in appearance of the material to a sticky solid and an increase in water content to 4.3% w/w.

[3] = system: more than 50 other receptors including GPCRs, ion channels and receptor tyrosine kinases; assay: binding to other receptors tested
Source text: . The specific ligand binding to the receptors is defined as the difference between the total binding and the nonspecific binding determined in the presence of an excess of unlabelled ligand. […]

blood glucose = assay: Blood glucose levels after oral PRX-3140 potassium salt; type: in vivo, human; conditions: 15 mg orally, single dose, fed conditions, male volunteers
Protocol: Example 18—Blood Glucose Levels of Controls vs. Sustained-Release Oral PRX-3140 Potassium Salt Capsules. A Phase I, single dose escalation study under fed conditions was conducted in male volunteers with PRX-3140 potassium salt at the 15 mg dose level. […] The study was also conducted to examine the effects of PRX-3140 sustained-release capsule administration on the subjects' fasting and postprandial blood glucose concentrations. Subjects were monitored daily for vital signs (including blood pressure, heart rate, respiratory rate, and temperature) and adverse events. In addition, blood was drawn to assess glucose concentration. Glucose was tested within 60 minutes prior to meals in the morning and throughout the day at different timepoints.

[4] = 30% peroxide degradation study; type: physicochemical; conditions: 18-hour exposure to 30% hydrogen peroxide; 250 nm
Protocol: […]. Sample was evaporated to dryness and analyzed using LC/UV/MS and NMR analysis. Two major degradants are noted in the LC/UV/MS.
[…]. The solvent is removed under vacuum at RT, then acetonitrile (5 mL) was added to the residue and evaporated to dryness at 40 degrees Celsius. […].
Two milligrams of the sample was weighed into a 4 mL vial. Two mL of 20/80 methanol/water was added to the vial and vortexed vigorously. FIG. 9A is a HPLC chromatogram of the H2O2 sample at 250 nm. Three major peaks are noted, including the parent molecule at 12.5 minutes. […]. Maximums are noted at 220, 250, and 320 nm. Chromatograms for all samples were collected at all three wavelengths with 250 nm as the primary wavelength based on lambda max. FIG. 10A is the UV spectra for the peak at 8.9 minutes. In comparison with the parent molecule, the high-end absorption is absent (320 nm). FIG. 10B is the UV spectra for the peak at 12.9 minutes. […]. An [M+H]+ is noted at 258.0 m/z with [M+H+NH3]+ at 275.1, [M+Na]+ at 280.1, and [2M+Na]+ at 537.1 m/z. It is noted that this is a fragile molecule and required the reduction of the Fragmentor Voltage from 150V down to 70V to see the protonated molecular ion. […] FIG. 11C is the mass spectra of the largest degradation product of PRX-3140b at 12.9 minutes, relative retention time (RRT) of 1.04 (compared to 1.05 in Example 4). […]

[5] = Acid (1N HCl), listed as PRX-3140 Potassium Salt
[6] = Acid (1N HCl), listed as PRX-3140 potassium salt
[7] = Base (1N NaOH), listed as PRX-3140 Potassium Salt
[8] = Base (1N NaOH), listed as PRX-3140 potassium salt
[9] = Control (DI Water), listed as PRX-3140 Potassium Salt
[10] = Control (DI Water), listed as PRX-3140 potassium salt
[11] = H2O2 (3%), listed as PRX-3140 Potassium Salt
[12] = H2O2 (3%), listed as PRX-3140 potassium salt

## CC(C)n1c(=O)c(C(=O)NCCCN2CCCCC2)c([O-])c2ccsc21.[K+] [PRX-3140, 6,7-Dihydro-4-hydroxy-7-isopropyl-6-oxo-N-(3-(piperidin-1-yl)propyl)thieno[2,3-b]pyridine-5-carboxamide potassium salt]
[1]; Acid (1N HCl)
  percent peak area at 250 nm, RRT 0.99: 0.07%
  percent peak area at 250 nm, RRT 1.08: 0.11%
  percent peak area at 250 nm, RRT 1.11: 0.04%
  percent peak area at 250 nm, RRT 1.27: 0.04%
  percent peak area at 250 nm, RRT 1.34: 0.15%
  percent peak area at 250 nm, RRT 1.53: 0.43%
  percent peak area at 250 nm, RRT 1.79: 0.04%
  percent peak area at 250 nm, RRT 2.51: 0.06%
  percent peak area at 250 nm, RRT 2.70: 0.13%
[1]; [5]
  percent peak area at 250 nm, RRT 1.00 (purity of parent molecule): 98.94%
  percent peak area at 250 nm, RRT 1.05 (PRX-3140b): <0.03%
[1]; [6]
  percent peak area at 250 nm, RRT 1.00 (purity of parent molecule): 98.9%
  percent peak area at 250 nm, RRT 1.05 (PRX-3140b): < 0.03%
[1]; Base (1N NaOH)
  percent peak area at 250 nm, RRT 0.94: 0.28%
  percent peak area at 250 nm, RRT 1.08: 0.12%
  percent peak area at 250 nm, RRT 1.34: 0.16%
  percent peak area at 250 nm, RRT 1.53: 0.42%
  percent peak area at 250 nm, RRT 1.79: 0.05%
  percent peak area at 250 nm, RRT 2.51: 0.05%
  percent peak area at 250 nm, RRT 2.70: 0.12%
[1]; [7]
  percent peak area at 250 nm, RRT 1.00 (purity of parent molecule): 98.71%
  percent peak area at 250 nm, RRT 1.05 (PRX-3140b): <0.03%
[1]; [8]
  percent peak area at 250 nm, RRT 1.00 (purity of parent molecule): 98.7%
  percent peak area at 250 nm, RRT 1.05 (PRX-3140b): < 0.03%
[1]; Control (DI Water)
  percent peak area at 250 nm, RRT 1.08: 0.12%
  percent peak area at 250 nm, RRT 1.11: 0.04%
  percent peak area at 250 nm, RRT 1.34: 0.17%
  percent peak area at 250 nm, RRT 1.53: 0.42%
  percent peak area at 250 nm, RRT 1.71: 0.23%
  percent peak area at 250 nm, RRT 1.79: 0.11%
  percent peak area at 250 nm, RRT 1.93: 0.06%
  percent peak area at 250 nm, RRT 2.51: 0.06%
  percent peak area at 250 nm, RRT 2.70: 0.18%
  percent peak area at 250 nm, RRT 1.00 (purity of parent molecule): 98.6%
[1]; [9]
  percent peak area at 250 nm, RRT 1.00 (purity of parent molecule): 98.60%
  percent peak area at 250 nm, RRT 1.05 (PRX-3140b): <0.03%
[1]; [10]
  percent peak area at 250 nm, RRT 1.00 (purity of parent molecule): 98.6%
  percent peak area at 250 nm, RRT 1.05 (PRX-3140b): < 0.03%
[1]; H2O2 (3%)
  percent peak area at 250 nm, RRT 0.78 (PRX-3140a): 8.49%
  percent peak area at 250 nm, RRT 0.82: 0.10%
  percent peak area at 250 nm, RRT 1.08: 0.19%
  percent peak area at 250 nm, RRT 1.27: 0.21%
  percent peak area at 250 nm, RRT 1.34: 0.09%
  percent peak area at 250 nm, RRT 1.42: 0.32%
  percent peak area at 250 nm, RRT 1.53: 0.42%
  percent peak area at 250 nm, RRT 1.79: 0.19%
  percent peak area at 250 nm, RRT 2.70: 0.11%
  percent peak area at 250 nm, RRT 1.00 (purity of parent molecule): 80.6%
[1]; [11]
  percent peak area at 250 nm, RRT 1.00 (purity of parent molecule): 80.57%
  percent peak area at 250 nm, RRT 1.05 (PRX-3140b): 9.06%
[1]; [12]
  percent peak area at 250 nm, RRT 1.00 (purity of parent molecule): 80.6%
  percent peak area at 250 nm, RRT 1.05 (PRX-3140b): 9.1%
[2]; Exposed Sample (ICH Q1B light, 2 days)
  assay value: 94.20 % w/w
[2]; t = 0, listed as PRX-3140 potassium salt, potassium salt
  Water Content - KF: 0.900 % w/w
[3]
  affinity for more than 50 other receptors tested: no significant affinity
Blood glucose
  mean blood glucose level decrease compared to control values: −19.5%
[4]
  purity of the parent molecule PRX-3140: 29.6%
